ChEMBL document CHEMBL4387706, “Discovery of Novel Spiroindoline Derivatives as Selective Tankyrase Inhibitors” (J Med Chem, 2019)
In brackets after ≈: the same amount, converted by molar mass. Activity calls are given as the source filed them. The calls are words filed in the database; no cut-off is given here.

What was measured:
Homo sapiens [1] = species on record: Homo sapiens; assay: Effect on hippo signaling protein in human COLO320DM cells assessed as change in CTGF expression at 0.1 to 1 uM measured after 48 hrs by RT-PCR analysis; type: cell-based
COLO 320DM = assay: Antitumor activity against human COLO320DM cells xenografted in mouse assessed as tumor growth inhibition at 40 mg/kg, ip administered twice daily for 11 days relative to control; type: functional; conditions: 264 h, read-out: TGI
[2] = Protein binding in mouse serum assessed as unbound fraction at 1 uM measured after 24 hrs by LC-MS/MS analysis; type: ADME, cell-free
Homo sapiens [3] = species on record: Homo sapiens; assay: Effect on hippo signaling protein in human COLO320DM cells assessed as change in AMOTL2 expression at 0.1 to 1 uM measured after 48 hrs by RT-PCR analysis; type: cell-based
Homo sapiens [4] = species on record: Homo sapiens; assay: Effect on hippo signaling protein in human COLO320DM cells assessed as change in CYR61 expression at 0.1 to 1 uM measured after 48 hrs by RT-PCR analysis; type: cell-based
in vitro [5] = conditions: human, liver microsomes
Description: Stability in human liver microsomes assessed as parent compound remaining at 1 uM measured after 30 mins in presence of NADPH by LC-MS/MS analysis

[6] = Oral bioavailability in Sprague-Dawley rat at 3 mg/kg; type: ADME, organism-based; conditions: in vivo
[7] = Cmax in Sprague-Dawley rat at 3 mg/kg, po; type: ADME, organism-based; parameters: dose 3 mg/kg, route oral; conditions: in vivo
[8] = Permeability of the compound by PAMPA; type: ADME; conditions: read-out: permeability
[9] = target: Poly [ADP-ribose] polymerase 1 (Homo sapiens, UniProt P09874)
Chain of Poly [ADP-ribose] polymerase 1 (P09874 whole entry): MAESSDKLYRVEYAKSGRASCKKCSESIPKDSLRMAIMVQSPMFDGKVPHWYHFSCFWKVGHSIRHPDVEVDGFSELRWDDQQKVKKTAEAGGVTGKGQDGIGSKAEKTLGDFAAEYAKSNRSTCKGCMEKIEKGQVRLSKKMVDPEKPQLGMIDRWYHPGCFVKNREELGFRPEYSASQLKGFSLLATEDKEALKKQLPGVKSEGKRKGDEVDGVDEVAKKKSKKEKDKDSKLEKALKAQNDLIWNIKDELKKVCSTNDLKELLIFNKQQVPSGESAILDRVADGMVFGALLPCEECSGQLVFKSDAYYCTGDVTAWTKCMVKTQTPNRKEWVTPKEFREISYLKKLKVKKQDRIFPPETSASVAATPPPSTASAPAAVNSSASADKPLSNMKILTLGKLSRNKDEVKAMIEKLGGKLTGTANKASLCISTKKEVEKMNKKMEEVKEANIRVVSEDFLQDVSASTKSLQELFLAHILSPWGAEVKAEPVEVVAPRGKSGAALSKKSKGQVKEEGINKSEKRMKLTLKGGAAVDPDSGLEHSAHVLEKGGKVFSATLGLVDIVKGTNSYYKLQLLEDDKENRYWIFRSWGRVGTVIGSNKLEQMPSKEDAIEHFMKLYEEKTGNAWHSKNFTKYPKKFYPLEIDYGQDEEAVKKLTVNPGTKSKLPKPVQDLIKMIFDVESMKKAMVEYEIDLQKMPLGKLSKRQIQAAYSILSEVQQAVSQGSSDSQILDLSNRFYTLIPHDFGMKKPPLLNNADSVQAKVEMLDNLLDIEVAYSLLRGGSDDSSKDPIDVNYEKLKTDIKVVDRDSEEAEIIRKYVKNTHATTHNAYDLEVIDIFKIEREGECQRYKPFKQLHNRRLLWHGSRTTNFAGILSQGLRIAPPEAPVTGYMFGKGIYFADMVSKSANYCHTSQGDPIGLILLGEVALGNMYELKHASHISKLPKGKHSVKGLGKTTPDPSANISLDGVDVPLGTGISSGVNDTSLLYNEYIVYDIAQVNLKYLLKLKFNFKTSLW
Description: Inhibition of recombinant human PARP1 expressed in Escherichia coli assessed as reduction in auto-PARylation using histone as substrate measured after 45 mins in presence of biotinylated-NAD+ by ELISA

[10] = Total clearance in Sprague-Dawley rat at 1 mg/kg, iv; type: ADME, organism-based; conditions: in vivo
[11] = Toxicity in mouse xenografted with human COLO320DM cells assessed as body weight loss at 40 mg/kg, ip administered twice daily for 11 days; type: organism-based; conditions: in vivo, 264 h
[12] = target: Poly [ADP-ribose] polymerase 2 (Homo sapiens, UniProt Q9UGN5); assay: Inhibition of human recombinant N-terminal GST-tagged PARP2 (2 to 583 residues) expressed in baculovirus infected Sf9 cells assessed as reduction in auto-PARylation using histone as substrate measured after 45 mins in presence of biotinylated-NAD+ by ELISA
Chain of Poly [ADP-ribose] polymerase 2 (Q9UGN5 whole entry, the tested form may be a part): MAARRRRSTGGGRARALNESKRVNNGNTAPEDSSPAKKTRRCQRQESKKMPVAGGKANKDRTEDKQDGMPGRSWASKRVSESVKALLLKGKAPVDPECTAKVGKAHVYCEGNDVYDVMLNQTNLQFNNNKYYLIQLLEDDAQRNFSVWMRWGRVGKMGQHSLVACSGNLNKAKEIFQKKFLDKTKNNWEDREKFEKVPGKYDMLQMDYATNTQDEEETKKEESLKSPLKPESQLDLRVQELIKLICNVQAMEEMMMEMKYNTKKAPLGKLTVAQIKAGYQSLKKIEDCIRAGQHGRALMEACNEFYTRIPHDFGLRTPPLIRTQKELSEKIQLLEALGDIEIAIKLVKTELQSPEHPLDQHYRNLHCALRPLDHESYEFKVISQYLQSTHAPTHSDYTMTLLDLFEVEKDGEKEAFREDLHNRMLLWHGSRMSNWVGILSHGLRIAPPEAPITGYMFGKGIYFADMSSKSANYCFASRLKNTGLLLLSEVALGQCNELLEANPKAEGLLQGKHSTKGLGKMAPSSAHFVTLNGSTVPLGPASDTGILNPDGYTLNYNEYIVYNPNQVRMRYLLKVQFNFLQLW

[13] = AUC (infinity) in Sprague-Dawley rat at 1 mg/kg, iv; type: ADME, organism-based; parameters: dose 1 mg/kg, route intravenous, time infinity; conditions: in vivo
[14] = Initial plasma concentration in Sprague-Dawley rat at 1 mg/kg, iv; type: ADME, organism-based
[15] = Volume of distribution at steady state in Sprague-Dawley rat at 1 mg/kg, iv; type: ADME, organism-based; conditions: in vivo, read-out: Vdss
[16] = Protein binding in human serum assessed as unbound fraction at 1 uM measured after 24 hrs by LC-MS/MS analysis; type: ADME, cell-free
physchem = conditions: phosphate buffer, pH 7.4
[17] = Tmax in Sprague-Dawley rat at 3 mg/kg, po; type: ADME, organism-based; conditions: in vivo
[18] = Half life in Sprague-Dawley rat at 1 mg/kg, iv; type: ADME, organism-based; conditions: in vivo
[19] = AUC (infinity) in Sprague-Dawley rat at 3 mg/kg, po; type: ADME, organism-based; parameters: dose 3 mg/kg, time infinity, route oral; conditions: in vivo
in vitro [20] = conditions: mouse, liver microsomes
Description: Stability in mouse liver microsomes assessed as parent compound remaining at 1 uM measured after 30 mins in presence of NADPH by LC-MS/MS analysis

[21] = target: T1, Protein mono-ADP-ribosyltransferase PARP10 (Homo sapiens, UniProt Q53GL7); assay: Inhibition of human recombinant N-terminal TEV-cleavgae site-fused-FLAG/Polyhis-tagged PARP10 […] expressed in Escherichia coli assessed as reduction in auto-PARylation using histone as substrate measured after 45 mins in presence of biotinylated-NAD+ by ELISA
T1 sequence (Q53GL7 whole entry): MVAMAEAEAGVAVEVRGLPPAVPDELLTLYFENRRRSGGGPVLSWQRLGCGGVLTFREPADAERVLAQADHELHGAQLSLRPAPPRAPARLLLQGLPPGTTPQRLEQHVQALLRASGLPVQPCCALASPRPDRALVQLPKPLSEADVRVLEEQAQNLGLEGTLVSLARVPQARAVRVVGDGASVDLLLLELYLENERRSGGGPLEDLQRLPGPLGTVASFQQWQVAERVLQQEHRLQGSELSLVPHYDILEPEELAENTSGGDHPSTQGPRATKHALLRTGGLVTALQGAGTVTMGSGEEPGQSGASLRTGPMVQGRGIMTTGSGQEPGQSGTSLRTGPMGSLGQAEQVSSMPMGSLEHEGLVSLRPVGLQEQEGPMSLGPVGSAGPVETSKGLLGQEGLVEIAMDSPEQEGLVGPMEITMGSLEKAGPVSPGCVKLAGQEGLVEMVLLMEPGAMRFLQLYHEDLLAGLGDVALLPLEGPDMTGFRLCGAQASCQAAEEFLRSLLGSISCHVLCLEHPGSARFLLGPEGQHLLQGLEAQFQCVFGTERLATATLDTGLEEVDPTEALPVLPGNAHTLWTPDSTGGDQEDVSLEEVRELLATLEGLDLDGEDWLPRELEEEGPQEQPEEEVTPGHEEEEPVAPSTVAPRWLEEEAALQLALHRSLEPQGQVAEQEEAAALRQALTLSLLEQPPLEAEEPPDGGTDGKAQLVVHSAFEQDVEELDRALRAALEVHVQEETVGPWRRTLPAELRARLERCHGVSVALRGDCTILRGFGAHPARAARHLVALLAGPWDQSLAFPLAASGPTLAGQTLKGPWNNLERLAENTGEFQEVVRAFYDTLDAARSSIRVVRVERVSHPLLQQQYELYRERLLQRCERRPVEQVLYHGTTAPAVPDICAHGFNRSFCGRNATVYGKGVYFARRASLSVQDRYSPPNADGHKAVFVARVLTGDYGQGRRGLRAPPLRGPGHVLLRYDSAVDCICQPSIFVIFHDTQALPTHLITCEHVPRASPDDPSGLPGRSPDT

Structure (SMILES): CS(=O)(=O)c1ccc(-c2nnc(/C=C/c3nnc(-c4ccc(C#N)cc4)o3)n2-c2ccccc2Cl)nc1
- Activity (Homo sapiens [1]): inactive
- inhibition in vivo at 40 mg/kg (COLO 320DM): 48%
- fraction unbound at 24 h, 1 µM [2]: 0.035
- Activity (Homo sapiens [3]): inactive
- Activity (Homo sapiens [4]): inactive
- remaining at 0.5 h, 1 µM (in vitro [5]): 100%
- bioavailability [6]: 97.8%
- Cmax [7]: 230 nM
- Papp [8]: 11.4 ×10⁻⁶ cm/s
- IC50 [9]: > 100 µM
- clearance [10]: 39.7 mL/min/kg
- Activity [11]: Toxic
- IC50 [12]: > 100 µM
- AUC(0-inf) [13]: 0.79 µM·h
- C0 [14]: 1540 nM
- Vd [15]: 1.79 L/kg
- fraction unbound at 24 h, 1 µM [16]: 0.028
- solubility at 1 h, 200 µM (physchem): 1.5 µg/mL (≈ 2.83 µM)
- Tmax [17]: 4 h
- half-life [18]: 198 min
- AUC(0-inf) [19]: 2.33 µM·h
- remaining at 0.5 h, 1 µM (in vitro [20]): 95.8%
- IC50 [21]: > 100 µM
